According to the NIST ThermoML archive (doi:10.1016/j.jct.2019.02.031):
± gives the expanded uncertainty stated by the source.

Test: xn = mol fraction of the nth substance listed
Details: 101 kPa, Liquid; for viscosity: Falling or rolling sphere viscometry; for mass density: Vibrating tube method

Cn1cc[n+](CCC[N+](C)(C)C)c1.N#C[N-]C#N.N#C[N-]C#N + CC(C)O
Details	mass density [kg/m3]	viscosity [mPa·s]
283.15 K, x1 = 0.1001	905.3 ± 2.2	12.27 ± 1.2
283.15 K, x1 = 0.2	978.56 ± 2.1	31.98 ± 3.2
283.15 K, x1 = 0.2999	1028.83 ± 2	71.59 ± 7.2
283.15 K, x1 = 0.4	1065.91 ± 2	152.1 ± 16
283.15 K, x1 = 0.5001	1094.18 ± 2	290.4 ± 33
283.15 K, x1 = 0.5998	1114.84 ± 2	452 ± 55
283.15 K, x1 = 0.7002	1130.38 ± 2	742.9 ± 97
283.15 K, x1 = 0.8001	1142.95 ± 2	1216 ± 170
283.15 K, x1 = 0.8985	1153.75 ± 2	2301 ± 360
283.15 K, x1 = 1	1162.82 ± 2	4998 ± 870
288.15 K, x1 = 0.1001	901.8 ± 2.2	10.23 ± 1
288.15 K, x1 = 0.2	975.32 ± 2.1	25.55 ± 2.6
288.15 K, x1 = 0.2999	1025.72 ± 2	54.85 ± 5.5
288.15 K, x1 = 0.4	1062.7 ± 2	110.5 ± 11
288.15 K, x1 = 0.5001	1091.1 ± 2	204.6 ± 22
288.15 K, x1 = 0.5998	1111.98 ± 2	303.9 ± 35
288.15 K, x1 = 0.7002	1127.66 ± 2	493.5 ± 60
288.15 K, x1 = 0.8001	1140.22 ± 2	749.8 ± 98
288.15 K, x1 = 0.8985	1150.85 ± 2	1346 ± 190
288.15 K, x1 = 1	1159.76 ± 2	2736 ± 430
293.15 K, x1 = 0.1001	898.28 ± 2.2	8.914 ± 0.9
293.15 K, x1 = 0.2	972.09 ± 2.1	21.4 ± 2.1
293.15 K, x1 = 0.2999	1022.6 ± 2	44.54 ± 4.5
293.15 K, x1 = 0.4	1059.76 ± 2	85.03 ± 8.6
293.15 K, x1 = 0.5001	1088.04 ± 2	153 ± 16
293.15 K, x1 = 0.5998	1108.93 ± 2	219.1 ± 24
293.15 K, x1 = 0.7002	1124.71 ± 2	341.4 ± 40
293.15 K, x1 = 0.8001	1137.27 ± 2	498.6 ± 61
293.15 K, x1 = 0.8985	1147.89 ± 2	843.4 ± 110
293.15 K, x1 = 1	1156.74 ± 2	1608 ± 240
298.15 K, x1 = 0.1001	894.74 ± 2.2	7.619 ± 0.77
298.15 K, x1 = 0.2	968.65 ± 2.1	18.02 ± 1.8
298.15 K, x1 = 0.2999	1019.48 ± 2	35.75 ± 3.6
298.15 K, x1 = 0.4	1056.42 ± 2	66.38 ± 6.7
298.15 K, x1 = 0.5001	1084.68 ± 2	116.5 ± 12
298.15 K, x1 = 0.5998	1105.58 ± 2	163 ± 17
298.15 K, x1 = 0.7002	1121.85 ± 2	245.1 ± 27
298.15 K, x1 = 0.8001	1134.38 ± 2	342.8 ± 40
298.15 K, x1 = 0.8985	1144.95 ± 2	558.1 ± 70
298.15 K, x1 = 1	1153.73 ± 2	1007 ± 140
303.15 K, x1 = 0.1001	891.18 ± 2.2	6.585 ± 0.66
303.15 K, x1 = 0.2	965.32 ± 2.1	15.28 ± 1.5
303.15 K, x1 = 0.2999	1016.38 ± 2	29.22 ± 2.9
303.15 K, x1 = 0.4	1053.15 ± 2	53.45 ± 5.4
303.15 K, x1 = 0.5001	1081.45 ± 2	90.62 ± 9.2
303.15 K, x1 = 0.5998	1102.88 ± 2	124.3 ± 13
303.15 K, x1 = 0.7002	1118.91 ± 2	181.3 ± 20
303.15 K, x1 = 0.8001	1131.5 ± 2	245.7 ± 27
303.15 K, x1 = 0.8985	1141.97 ± 2	387.2 ± 46
303.15 K, x1 = 1	1150.76 ± 2	662.9 ± 85
308.15 K, x1 = 0.1001	887.61 ± 2.2	5.755 ± 0.58
308.15 K, x1 = 0.2	962.09 ± 2.1	13.11 ± 1.3
308.15 K, x1 = 0.2999	1013.25 ± 2	24.31 ± 2.4
308.15 K, x1 = 0.4	1050.12 ± 2	43.61 ± 4.4
308.15 K, x1 = 0.5001	1078.35 ± 2	71.82 ± 7.2
308.15 K, x1 = 0.5998	1099.87 ± 2	97.07 ± 9.9
308.15 K, x1 = 0.7002	1116.01 ± 2	137.7 ± 14
308.15 K, x1 = 0.8001	1128.64 ± 2	182 ± 20
308.15 K, x1 = 0.8985	1139.04 ± 2	278.9 ± 32
308.15 K, x1 = 1	1147.8 ± 2	455.4 ± 55
313.15 K, x1 = 0.1001	884.01 ± 2.2	5.069 ± 0.51
313.15 K, x1 = 0.2	959.16 ± 2.1	11.51 ± 1.2
313.15 K, x1 = 0.2999	1009.82 ± 2	20.53 ± 2.1
313.15 K, x1 = 0.4	1046.89 ± 2	36.31 ± 3.6
313.15 K, x1 = 0.5001	1075.26 ± 2	58.15 ± 5.8
313.15 K, x1 = 0.5998	1096.85 ± 2	77.62 ± 7.8
313.15 K, x1 = 0.7002	1113.12 ± 2	107.2 ± 11
313.15 K, x1 = 0.8001	1125.89 ± 2	138.5 ± 14
313.15 K, x1 = 0.8985	1136.19 ± 2	207.8 ± 23
313.15 K, x1 = 1	1144.89 ± 2	324.6 ± 37
318.15 K, x1 = 0.1001	880.4 ± 2.2	4.515 ± 0.46
318.15 K, x1 = 0.2	955.64 ± 2.1	10.08 ± 1
318.15 K, x1 = 0.2999	1006.35 ± 2	17.42 ± 1.8
318.15 K, x1 = 0.4	1043.68 ± 2	30.62 ± 3.1
318.15 K, x1 = 0.5001	1072.32 ± 2	48.57 ± 4.9
318.15 K, x1 = 0.5998	1094.09 ± 2	63.07 ± 6.3
318.15 K, x1 = 0.7002	1110.26 ± 2	85.59 ± 8.7
318.15 K, x1 = 0.8001	1123.09 ± 2	109 ± 11
318.15 K, x1 = 0.8985	1133.33 ± 2	160.3 ± 17
318.15 K, x1 = 1	1142 ± 2	239.7 ± 27
323.15 K, x1 = 0.1001	876.76 ± 2.2	4.052 ± 0.41
323.15 K, x1 = 0.2	952.12 ± 2.1	8.828 ± 0.89
323.15 K, x1 = 0.2999	1002.86 ± 2	15.18 ± 1.5
323.15 K, x1 = 0.4	1040.46 ± 2	26.11 ± 2.6
323.15 K, x1 = 0.5001	1069.5 ± 2	40.73 ± 4.1
323.15 K, x1 = 0.5998	1091.18 ± 2	52.16 ± 5.2
323.15 K, x1 = 0.7002	1107.31 ± 2	70.03 ± 7
323.15 K, x1 = 0.8001	1120.31 ± 2	86.93 ± 8.8
323.15 K, x1 = 0.8985	1130.45 ± 2	125.4 ± 13
323.15 K, x1 = 1	1139.11 ± 2	181.2 ± 20
328.15 K, x1 = 0.1001	873.09 ± 2.2	3.672 ± 0.37
328.15 K, x1 = 0.2	948.69 ± 2.1	7.836 ± 0.79
328.15 K, x1 = 0.2999	1000.05 ± 2	13.38 ± 1.3
328.15 K, x1 = 0.4	1037.56 ± 2	22.57 ± 2.3
328.15 K, x1 = 0.5001	1066.62 ± 2	34.87 ± 3.5
328.15 K, x1 = 0.5998	1088.47 ± 2	45.82 ± 4.6
328.15 K, x1 = 0.7002	1104.35 ± 2	58.38 ± 5.9
328.15 K, x1 = 0.8001	1117.52 ± 2	71.22 ± 7.2
328.15 K, x1 = 0.8985	1127.59 ± 2	101.4 ± 10
328.15 K, x1 = 1	1136.24 ± 2	141.1 ± 15
333.15 K, x1 = 0.1001	869.4 ± 2.2	3.36 ± 0.34
333.15 K, x1 = 0.2	945.77 ± 2.1	6.989 ± 0.7
333.15 K, x1 = 0.2999	996.95 ± 2	11.94 ± 1.2
333.15 K, x1 = 0.4	1034.62 ± 2	19.89 ± 2
333.15 K, x1 = 0.5001	1063.89 ± 2	29.99 ± 3
333.15 K, x1 = 0.5998	1085.59 ± 2	39.36 ± 4
333.15 K, x1 = 0.7002	1101.65 ± 2	49.32 ± 5
333.15 K, x1 = 0.8001	1114.82 ± 2	59.34 ± 6
333.15 K, x1 = 0.8985	1124.75 ± 2	83.14 ± 8.4
333.15 K, x1 = 1	1133.4 ± 2	111.9 ± 12
